Test results published in patent US20030176494A1, “Novel coumarin and chromene compounds and methods of preparation and use thereof for treating or preventing viral infections” (priority 2001, published 2003).
Converted amounts (≈) assume the structure as drawn. Where two headings read alike, the source gives them in different places.

How the values were obtained:
[1] = system: AZT-resistant G-9106 strain of HIV; conditions: cited from earlier work
[2] = system: human T-lymphoblastic cells (CEM-SS); conditions: cited from earlier work
[3] = system: pyridinone-resistant A17 virus; conditions: cited from earlier work
HIV-1 = conditions: cited from earlier work
Rhinovirus = Rhinovirus antiviral assay (CPE inhibition, neutral red uptake, virus yield); type: cell-based; conditions: Enterovirus
HIV = experiment: Anti-HIV evaluation by MTT-tetrazolium method (inhibition of CPE in MT-2 / CEM-SS cells); type: cell-based; conditions: Human immunodeficiency virus 1, CEM-SS; read-out: Antiviral Activities (EC50) HIV
Protocol: This example illustrates the anti-HIV activity of various coumarin and chromene compounds which were evaluated using the published MTT-tetrazolium methods^8. Retroviral agents AZT and DDC were used as controls for comparison purposes.
The cells used for screening were the MT-2 and the human T4-lymphoblastoid cell line, CEM-SS, and were grown in RPMI 1640 medium supplemented with 10% fetal (v/v) heat-inactivated fetal calf serum and also containing 100 units/mL penicillin, 100 μg/mL streptomycin, 25 mM HEPES and 20 μg/mL gentamicin. The medium used for dilution of drugs and maintenance of cultures during the assay was the same as above. The HTLV-IIIB and HTLV-RF were propagated in CEM-SS. The appropriate amounts of the pure compounds for anti-HIV evaluations were dissolved in DMSO, then diluted in medium to the desired initial concentration. The concentrations (M medium) employed were […]; 0.001 μM; 0.0032 μM; 0.01 μM; 0.032 μM; 0.1 μM; 0.32 μM; 1 μM; 3.2 μM; 10 μM; 32 μM; and 100 μM. Each dilution was added to plates in the amount of 100 μL/well. Drugs were tested in triplicate wells per dilution with infected cells while in duplicate wells per dilution with uninfected cells for evaluation of cytotoxicity. On day 6 (CEM-SS cells) and day 7 (MT-2 cells) post-infection, the viable cells were measured with a tetrazolium salt, MTT (5 mg/mL), added to the test plates. A solution of 20% SDS in 0.001 N HCl is used to dissolve the MTT formazan produced. The optical density value was a function of the amount of formazan produced which was proportional to the number of viable cells. The percent inhibition of CPE per drug concentration was measured as a test over control and expressed in percent (T/C %).

VZV = VZV plaque reduction assay in human foreskin fibroblast cells; type: cell-based, Varicella Zoster Virus (Ellen strain); conditions: Human alphaherpesvirus 3, Fibroblast; read-out: Antiviral Activities (EC50) VZV
Protocol: [table] Two days prior to use, HFF cells are plated into six-well plates and incubated at 37° C. with 5% CO2 and 90% humidity. On the date of assay, the drug is made up at twice the desired concentration in 2×MEM and then serially diluted 1:5 in 2×MEM using six concentrations of drug. […] The media is then aspirated from the wells and 0.2 mL of virus is added to each well in duplicate with 0.2 mL of media being added to drug toxicity wells. The plates are then incubated for one hour with shaking every fifteen minutes. […] The drug agarose mixture is applied to each well in 2 mL volume and the plates then incubated for three days, after which the cells were stained with a 1.5% solution of neutral red. At the end of 4-6 hr incubation period, the stain is aspirated, and plaques counted using a stereomicroscope at 10× magnification. The procedure is essentially the same as for the HSV plaque assay described above with two exceptions: 1. After addition of the drug, the plates are incubated for ten days. 2.

Measles Virus = experiment: Measles virus antiviral assay (CPE inhibition, neutral red uptake, virus yield); type: cell-based, Measles virus strain CC; conditions: Measles morbillivirus
EBV = EBV assay: superinfection of Raji or Daudi cells with P3HR-1, immunofluorescence for EA and VCA; type: cell-based, Epstein-Barr Virus (P3HR-1); conditions: human gammaherpesvirus 4; read-out: Antiviral Activities (EC50) EBV
From the text: There are two prototypes of infectious EBV. One is exemplified by the virus derived from supernatant fluids of the P3HR-1cell line. This cell line produces nontransforming virus that causes the production of early antigen (EA) after primary infection or superinfection of B cell lines. The other prototype is exemplified by the B-95-8 virus. This virus immortalized cord blood lymphocytes and induced tumors in marmosets. […] The virus used in our assays is P3HR-1.
Ramos is an exceptional B cell line derived from Burkitt's lymphoma tumor but containing no detectable EBV genome copies and is EBNA negative. Ramos/AW was obtained by in vitro infection of Ramos with the P3HR-1 virus and contains one resident EBV genome copy/cell. Raji is a Burkitt's lymphoma cell line containing 60 EBV genomes/cell, and will be the primary cell used for screening antiviral activity against EBV EA expression. Daudi is a low level producer that contains 152 EBV genome copies/cell. It spontaneously expresses EBV EA in 0.25%-0.5% of the cells. It will be used in follow-up studies to confirm activity. These cell lines respond to superinfection by EBV by expressing EA(D), EA(R), and VCA. All cell lines are maintained in RPMI-1640 medium supplemented by 10% FCS, L-glutamine and 100 μg/mL gentamicin. The cultures are fed twice weekly and the cell concentration adjusted to 3×10^5/mL. The cells are kept at 37° C. in a humidified atmosphere with 5% CO2.
Cells are infected with the P3HR-1 strain of EBV and the drugs to be tested are added after adsorption (45 minutes at 37° C.) and washing of the cell cultures. The cultures are incubated for two days in complete medium to allow viral gene expression. Following the 48 hr incubation period, the number of cells of each sample are counted and smears made. Monoclonal antibodies to the different EA components and VCA are then added to the cells incubated and washed. This is followed by a fluorescein conjugated rabbit anti-mouse Ig antibody; and the number of fluorescence positive cells in the smears are counted. The total number of cells in the cultures positive for EA or VCA are then calculated and compared.

[4] = system: Respiratory Syncytial Virus; experiment: Respiratory syncytial virus antiviral assay (CPE inhibition, neutral red uptake); type: cell-based, Respiratory syncytial virus strain Utah 89; conditions: human respiratory syncytial virus
HBV = HBV replication in cultures of 2.2.15 cells (HBV DNA blot hybridization); type: cell-based; conditions: Hepatitis B virus; read-out: Antiviral Activities (EC50) HBV
Protocol: Test compounds are then added daily for a continuous 9 day period. Culture medium (changed daily during the treatment period) is collected and stored for analysis of extracellular (virion) HBV DNA after 0, 3, 6, and 9 days of treatment. Treated cells are lysed 24 hours following day 9 of treatment for the analysis of intracellular HBV genomic forms. HBV DVA is then analyzed in a quantitative and qualitative manner for overall levels of HBV DNA (both extracellular and intracellular DNA) and the relative rate of HBV replication (intracellular DNA).
Both intracellular and extracellular HBV DNA are analyzed in order to (i) allow for verification of compound efficacy and (ii) provide possible data on the target site in the HBV replication pathway for the compound from examination of the pattern of viral replicative forms. The culture medium is changed daily during the treatment period to (i) prevent the buildup of potentially toxic metabolites derived from test compounds and (ii) provide an analysis of HBV virion production during discrete 24-hour intervals which enables a quantitative comparison of any effect on virion production.
The analysis of HBV DNA is performed using blot hybridization techniques (Southern and slot blot) and [^32P]-labeled HBV-specific probes. HBV DNA levels are measured by comparison to known amounts of HBV DNA standards applied to every nitrocellulose membrane (gel or slot blot). An AMBIS beta scanner, which measures the radioactive decay of the hybridized probes directly from the nitrocellulose membranes, is used for the quantitative analysis. Standard curves, generated by multiple analyses, are used to correlate CPM measurements made by the beta scanner with relative levels of target HBV DNA. The levels of HBV virion DNA released into the culture medium are analyzed by a slot blot hybridization procedure. HBV DNA levels are then compared to those at Day 0 to determine the effect of drug treatment.
The levels of RI and episomal monomers are used as an indicator of the relative level of HBV replication. Integrated HBV DNA is used to normalize the relative amounts of DNA in each lane because the levels of this class of HBV DNA would be expected to remain constant on a per cell basis. […] Inhibition of HBV DNA replication is indicated by the loss of RI without changes in the level of integrated HBV DNA.

[5] = CPE inhibition, read-out: Antiviral Activities (EC50) Rhinovirus (CPE)
[6] = neutral red (NR) dye uptake, read-out: Antiviral Activities (EC50) Rhinovirus (NR)
[7] = CPE inhibition, read-out: Antiviral Activities (EC50) Measles (CPE)
[8] = neutral red (NR) dye uptake, read-out: Antiviral Activities (EC50) Measles (NR)
[9] = CPE inhibition, read-out: Antiviral Activities (EC50) Respiratory Syncitial (CPE)
[10] = neutral red (NR) dye uptake, read-out: Antiviral Activities (EC50) Respiratory Syncitial (NR)
[11] = readout not stated, read-out: Antiviral Activities (EC50) Rhinovirus
[12] = readout not stated, read-out: Antiviral Activities (EC50) Respiratory Syncitial

| Compound | activity against AZT-resistant G-9106 strain of HIV [1] | IC50 [2] | activity against pyridinone-resistant A17 virus [3] | protection against the cytopathic effects of HIV-1 (HIV-1; down to a concentration of 0.1 μM) | EC50 (HIV-1; human T-lymphoblastic cells (CEM-SS), read-out: EC50, HIV-1 replication in CEM-SS) | EC50 (Rhinovirus; [5]) | EC50 (Rhinovirus; [6]) | EC50 (HIV) | EC50 (VZV) | EC50 (Measles Virus; [7]) | EC50 (Measles Virus; [8]) | EC50 (EBV) | EC50 [4, 9] | EC50 [4, 10] | EC50 (HBV) | melting point | EC50 (Rhinovirus; [11]) | EC50 (Measles Virus; readout not stated, read-out: Antiviral Activities (EC50) Measles) | EC50 [4, 12] | EC50 (Rhinovirus; read-out: Antiviral Activities (EC50) Rhinovirus (virus yield)) |
| --- | --- | --- | --- | --- | --- | --- | --- | --- | --- | --- | --- | --- | --- | --- | --- | --- | --- | --- | --- | --- |
| CCCc1cc(=O)oc2c3c(c4c(c12)OC(C)(C)C=C4)O[C@H](C)[C@@H](C)[C@@H]3O [(+)-calanolide A, (+)-Calanolide A] | active | 20 µM | active | 100% | 0.1 µM | – | – | – | – | – | – | – | – | – | – | – | – | – | – | – |
| CCCc1cc(=O)oc2cc(OS(=O)(=O)c3ccc(C)cc3)cc(O)c12 | – | – | – | – | – | 1 µg/mL (≈ 2.67 µM) | 2 µg/mL (≈ 5.34 µM) | > 2 µg/mL | > 100 µg/mL | 1 µg/mL (≈ 2.67 µM) | 1 µg/mL (≈ 2.67 µM) | 2.1 µg/mL (≈ 5.61 µM) | 3 µg/mL (≈ 8.01 µM) | 2 µg/mL (≈ 5.34 µM) | 2.1 µg/mL (≈ 5.61 µM) | – | – | – | – | – |
| CCCc1cc(=O)oc2cc(OC(=O)C(C)(C)C)cc(O)c12 [Compound 7b, 5-Hydroxy-7-pivaloyloxy-4-propylcoumarin] | – | – | – | – | – | – | – | – | – | – | – | – | – | – | – | 158 to 160 °C | – | – | – | – |
| CCCc1cc(=O)oc2cc(OS(=O)(=O)c3ccc(C)cc3)c3c(c12)OC(C)(C)C=C3 | – | – | – | – | – | – | – | 1.6 µg/mL (≈ 3.63 µM) | > 100 µg/mL | – | – | 0.2 µg/mL (≈ 0.454 µM) | – | – | > 10 µg/mL | – | > 100 µg/mL | > 100 µg/mL | > 100 µg/mL | – |
| CCCc1cc(=O)oc2c(C(=O)CC)c(O)c(C(=O)CC)c(O)c12 | – | – | – | – | – | – | – | > 2 µg/mL | > 20 µg/mL | > 100 µg/mL | > 100 µg/mL | 1.2 µg/mL (≈ 3.61 µM) | 20 µg/mL (≈ 60.2 µM) | 10 µg/mL (≈ 30.1 µM) | > 3 µg/mL | – | 0.39 µg/mL (≈ 1.17 µM) | – | – | – |
| CCCc1cc(=O)oc2cc(OC(=O)CC)cc(O)c12 | – | – | – | – | – | – | – | > 5 µg/mL | > 20 µg/mL | 2 µg/mL (≈ 7.24 µM) | 1 µg/mL (≈ 3.62 µM) | > 50 µg/mL | – | – | > 3 µg/mL | – | > 100 µg/mL | – | 3 µg/mL (≈ 10.9 µM) | – |
| CCC/C(=C/C(=O)OC)c1c(O)c2c(c3c1OC(C)(C)[C@H](O)[C@H]3O)O[C@H](C)[C@@H](C)[C@@H]2O | – | – | – | – | – | 20 µg/mL (≈ 45.8 µM) | 5 µg/mL (≈ 11.5 µM) | > 2 µg/mL | > 20 µg/mL | 10 µg/mL (≈ 22.9 µM) | 20 µg/mL (≈ 45.8 µM) | > 50 µg/mL | 100 µg/mL (≈ 229 µM) | > 100 µg/mL | > 4 µg/mL | – | – | – | – | – |
| CCCc1cc(=O)oc2c3c(c4c(c12)OC(C)(C)C(O)C4O)O[C@H](C)[C@@H](C)[C@@H]3O (some centres unmarked) | – | – | – | – | – | 10 µg/mL (≈ 24.7 µM) | 10 µg/mL (≈ 24.7 µM) | > 8 µg/mL | > 20 µg/mL | 10 µg/mL (≈ 24.7 µM) | 10 µg/mL (≈ 24.7 µM) | 9.5 µg/mL (≈ 23.5 µM) | > 100 µg/mL | > 100 µg/mL | > 4 µg/mL | – | – | – | – | – |
| CCCc1cc(=O)oc2c3c(c4c(c12)OC(C)(C)[C@H](O)[C@H]4OC(=O)c1cccc(Cl)c1)O[C@H](C)[C@@H](C)C3=O | – | – | – | – | – | 0.1 µg/mL (≈ 0.185 µM) | 0.1 µg/mL (≈ 0.185 µM) | > 3 µg/mL | 3.5 µg/mL (≈ 6.47 µM) | 3 µg/mL (≈ 5.55 µM) | 0.4 µg/mL (≈ 0.739 µM) | 29.2 µg/mL (≈ 54 µM) | 3 µg/mL (≈ 5.55 µM) | 4 µg/mL (≈ 7.39 µM) | 2.6 µg/mL (≈ 4.81 µM) | – | – | – | – | 4 µg/mL (≈ 7.39 µM) |
